Tested on: T1, GH18 chitinase from Curtobacterium sp. GD1 (carbohydrate binding protein, CBP)
T1 construct: native secreted enzyme, partially purified from chitin-induced culture supernatant (two major bands); 429 aa precursor, predicted 31 aa signal peptide removed; genome has 3 GH18 genes
Test: colorimetric p-nitrophenol release at […] nm, Lineweaver-Burk
Assay type: biochemical
Conditions: 100 mmol/L sodium phosphate pH 7.0, 37 °C, partially purified enzyme; substrate range 3-90 mmol/L; substrate of the Km not restated beside the value; unit printed as mmol (mmol/L presumably meant)

CC(=O)N[C@H]1[C@H](Oc2ccc([N+](=O)[O-])cc2)O[C@H](CO)[C@@H](O[C@@H]2O[C@H](CO)[C@@H](O[C@@H]3O[C@H](CO)[C@@H](O)[C@H](O)[C@H]3NC(C)=O)[C@H](O)[C@H]2NC(C)=O)[C@@H]1O [p-nitrophenyl-β-D-N,N’,N”-triacetylchitotriose]
Km: 10 mmol

From publication PMC8565777, “The chitinolytic activity of the Curtobacterium sp. isolated from field-grown soybean and analysis of its genome sequence” (PLoS ONE, 2021)
